Results reported in patent US7932228B2, “Method of treating bone or prostate cancer with selective bradykinin B1 receptor antagonists” (Societe de Commercialisation des Produits de la Recherche …, priority 2004, dated 2011).

Legend:
[1] = test system: MAT-LyLu-B2 prostate cancer cells; assay: orthoptic prostate cancer rat model (tumor progression); format: in vivo; conditions: male Copenhagen rats, 3 mg/kg s.c. daily from day 1, 21 days after surgery, n=5-6, p<0.05; saline 1856±443 mg
Method: The potential of a BKB1-R antagonist to inhibit tumor progression in an orthoptic prostate cancer rat model was evaluated. Under anesthesia, male Copenhagen rats were injected in the anterior prostatic lobe with 100 000 MAT-LyLu-B2 prostate cancer cells. One day after the surgery, the animals received a daily injection of either saline or Compound A (3 mg/kg s.c.). At 21 days after the surgery, the animals were sacrificed and the prostate tumor was excised and weighted. Average weight of the prostate and tumor was 1856±443 mg for saline-treated rats and 504±135 mg with Compound A-treated animals (n=5-6 p<0.05). Two other cancerous cell-types (R 3327-G, MAT-Lu) were implanted in rats and similar results were obtained at inhibiting tumor progression dose-dependently over periods of time. A BKB1-Ra was also reported effective at stopping and reversing the progression of established tumor, considering efficacy, reversibility and relapse of treatment. These elements were maintained upon dual and triple combinations with other anti-cancer, anti-angiogenic, anti-proliferative agents such as taxane and platinum related compounds.

[2] = test system: PC-3 cells; conditions: in vitro, cited from earlier work

In the case of “Ac-Orn[Oic^2,(α-Me)Phe^5,D-βNal^7,Ile^8]desArg^9BK [Compound A]”, the “Average weight of the prostate and tumor” value [1] is reported as 504 ± 135 mg.

For “Arg Pro Pro Gly Phe Ser Pro Phe (RPPGFSPF; desArg9 BK) [desArg^9-BK]”, the “cell growth and proliferation of PC-3 cells” value ([2]; BKB1-R agonist alone) is given as “stimulated”.

In the case of [Leu^8]desArg^9-BK, the “effect on desArg^9-BK-stimulated growth of PC-3 cells” value ([2]; growth stimulated by desArg^9-BK) is listed as “blocked”.
